± gives the expanded uncertainty stated by the source.
Settings: 298.15 K; 101.33 kPa; Liquid

Compound	mass density [kg/m3]
CCCCCCCCCCCCCC [tetradecane]	759.274 ± 0.51
CCCCCCC [heptane]	679.542 ± 0.45
CCCCCCCCCC [decane]	726.357 ± 0.83
CCCCCCCC [octane]	698.548 ± 0.53
COCCOCCOCCOCCOC [2,5,8,11,14-pentaoxapentadecane]	1007.12 ± 0.53
COCCOCCOCCOC [2,5,8,11-tetraoxadodecane]	980.625 ± 0.52

Source: the NIST ThermoML archive (doi:10.1021/je049903o)
